Data on 13 compounds can be found in patent US6127397A, “Optically active (R)-(E)-(4-substituted-phenyl-1,3-dithiolan-2-ylidene)-1-imidazolylaceto nitrile derivative, antifungal composition comprising the same, and method for producing the same” (Nihon Nohyaku Co., Ltd., priority 1996, dated 2000).

Common to all, as to test: In vitro antifungal activity (MIC), SGA agar plate, 27° C., 7 days
Experiment [1] concerns Trichophyton mentagrophytes IFO 5811. Type of experiment: cell-based. As to conditions: for MIC: Trichophyton mentagrophytes, IFO5811, 168 h, T. mentagrophytes IFO 5811, read-out: MIC value against Trichophyton. The protocol: (§1) In vitro antifungal activity of compounds against dormatophytes
Trichophyton mentagrophytes IFO 5811
(§2) Preparation of inoculation fungal solution:
(§3) To a strain cultured on Sabouraud's glucose agar (SGA) slant medium at 27° C. for 1 to 2 weeks was added 0.1% (v/v) Tween 80-added sterilized physiological saline solution, followed by rubbing with a platinum spatula. The resulting suspension of conidia was filtered through a sterilized gauze to eliminate mycelium mass. Thereafter, the conidia was counted by an erythrocytometer (Thoma) The suspension of the conidia was diluted with 0.1% (v/v) Tween 80-added sterilized physiological saline solution so as to have a concentration of 1×10^6 conidia/ml to obtain an inoculation fungal solution.
(§4) Each compound was dissolved into dimethyl sulfoxide (DMSO) to prepare a diluent having a […]. The concentration of DMSO in a medium was adjusted to hair 1% (v/v).
(§5) Measurement of antifungal activity:
(§6) A SGA plate medium containing a given amount of a compound (20 ml/dish) was prepared. A loopful of the inoculation fungal solution was applied in the form of a line to each plate medium at a length of about 15 mm, and was allowed to stand for cultivation at 27° C. for 7 days. The minimum inhibitory concentration (MIC) of the compound at which a growth of a microorganism cannot be visually recognized was determined.

The subject of another experiment is T. rubrum IFO 5805. Format: cell-based, Trichophyton rubrum. The conditions noted are these: for MIC: Trichophyton rubrum, IFO5805, 168 h, read-out: MIC value against Trichophyton.
In experiment [2] the test system is Trichophyton mentagrophytes TIMM 2789. Type of experiment: cell-based. As to conditions: for MIC: Trichophyton mentagrophytes, TIMM2789, 168 h, T. mentagrophytes TIMM 2789, read-out: MIC value against Trichophyton. The procedure: as §1
Trichophyton mentagrophytes TIMM 2789
as §2, §3, §4, §5, §6

In experiment [3] the test system is Trichophyton rubrum IFO 6204. Type of experiment: cell-based. As to conditions: for MIC: Trichophyton rubrum, IFO6204, 168 h, T. rubrum IFO 6204, read-out: MIC value against Trichophyton. The protocol:
as §1
Trichophyton rubrunm IFO 6204
as §2, §3, §4, §5, §6

In brackets after ≈: the same amount, converted by molar mass. Read-outs that look alike come from different tables or passages of the source. Where only a bound is given, the exact number is not on record here.

As usually defined, the MIC is the smallest concentration in the dilution series that meets the test's criterion for growth inhibition. For the compound `N#C/C(=C1/SC[C@@H](c2ccc(F)cc2)S1)n1ccnc1` [Compound No. 1, (R)-(E)-[4-(4-fluorophenyl)-1,3-dithicolan-2-ylidene]-1-imidazolylacetonitrile], the “MIC value against Trichophyton” value in experiment [1] (T. mentagrophytes IFO 5811) was greater than 0.64 µg/mL; in the experiment with T. rubrum IFO 5805 it was 0.64 µg/mL (≈ 2.11 µM); in experiment [2] (T. mentagrophytes TIMM 2789) it was 0.64 µg/mL (≈ 2.11 µM); in experiment [3] (T. rubrum IFO 6204), 0.32 µg/mL (≈ 1.05 µM). The MIC was found to be 0.64 µg/mL (≈ 2.11 µM) in experiment [1], 0.32 µg/mL (≈ 1.05 µM) in the experiment on T. rubrum IFO 5805, 0.32 µg/mL (≈ 1.05 µM) in experiment [2] and 0.16 µg/mL (≈ 0.527 µM) in experiment [3].
Consider `N#C/C(=C1/SC[C@@H](c2cccc(Cl)c2)S1)n1ccnc1` [Compound No. 2], for which the “MIC value against Trichophyton” value in experiment [1] (T. mentagrophytes IFO 5811) is greater than 0.64 µg/mL; in the experiment with T. rubrum IFO 5805, greater than 0.64 µg/mL; in experiment [2] (T. mentagrophytes TIMM 2789), greater than 0.64 µg/mL; in experiment [3] (T. rubrum IFO 6204) it was 0.16 µg/mL (≈ 0.5 µM); in experiment [3] (T. rubrum IFO 6204, listed as 2'), 0.64 µg/mL (≈ 2 µM). Further, the MIC in experiment [1] came out at 0.64 µg/mL (≈ 2 µM); with T. rubrum IFO 5805 it was 0.64 µg/mL (≈ 2 µM); in experiment [2] it was 0.32 µg/mL (≈ 1 µM).
With `N#C/C(=C1/SC[C@@H](c2ccc(Br)cc2)S1)n1ccnc1` [compound 3], the MIC in experiment [1] is greater than 0.08 µg/mL; in the experiment on T. rubrum IFO 5805 it was greater than 0.08 µg/mL; in experiment [2] it was greater than 0.08 µg/mL; in experiment [3], 0.08 µg/mL (≈ 0.22 µM). Further, the “MIC value against Trichophyton” value in experiment [3] (T. rubrum IFO 6204) was greater than 0.08 µg/mL.
Consider `N#C/C(=C1/SC[C@@H](c2ccc(Cl)cc2)S1)n1ccnc1` [compound 4], for which the MIC was greater than 0.08 µg/mL in experiment [1], greater than 0.08 µg/mL with T. rubrum IFO 5805, greater than 0.08 µg/mL in experiment [2] and 0.08 µg/mL (≈ 0.25 µM) in experiment [3]. Moreover, the “MIC value against Trichophyton” value in experiment [3] (T. rubrum IFO 6204) is greater than 0.08 µg/mL.
As to `N#C/C(=C1/SC[C@@H](c2ccccc2F)S1)n1ccnc1` [compound 5], the “MIC value against Trichophyton” value in experiment [1] (T. mentagrophytes IFO 5811) is 0.16 µg/mL (≈ 0.527 µM); in experiment [2] (T. mentagrophytes TIMM 2789), 0.04 µg/mL (≈ 0.132 µM). For the same compound, the MIC amounted to 0.08 µg/mL (≈ 0.264 µM) in experiment [1], 0.04 µg/mL (≈ 0.132 µM) in the experiment with T. rubrum IFO 5805, 0.02 µg/mL (≈ 0.0659 µM) in experiment [2] and 0.01 µg/mL (≈ 0.033 µM) in experiment [3].
Regarding `Cc1ccccc1[C@@H]1CS/C(=C(/C#N)n2ccnc2)S1` [compound 6], the figures for the minimal inhibitory concentration (MIC) (in experiment [1]; in the experiment on T. rubrum IFO 5805; in experiment [3]) were 0.32 µg/mL (≈ 1.07 µM), 0.16 µg/mL (≈ 0.534 µM) and 0.08 µg/mL (≈ 0.267 µM), respectively. In addition, the “MIC value against Trichophyton” value was 0.32 µg/mL (≈ 1.07 µM) with T. rubrum IFO 5805; 0.08 µg/mL (≈ 0.267 µM) in experiment [2] (T. mentagrophytes TIMM 2789); 0.32 µg/mL (≈ 1.07 µM) in experiment [2] (T. mentagrophytes TIMM 2789, listed as 6').
Regarding `N#C/C(=C1/SC[C@@H](c2ccc(F)cc2F)S1)n1ccnc1` [compound 7], the “MIC value against Trichophyton” value in experiment [1] (T. mentagrophytes IFO 5811) is 0.32 µg/mL (≈ 0.996 µM); against T. rubrum IFO 5805, 0.16 µg/mL (≈ 0.498 µM); in experiment [2] (T. mentagrophytes TIMM 2789), 0.08 µg/mL (≈ 0.249 µM); in experiment [3] (T. rubrum IFO 6204), 0.04 µg/mL (≈ 0.124 µM). The MIC stood at 0.16 µg/mL (≈ 0.498 µM) in experiment [1], 0.08 µg/mL (≈ 0.249 µM) in the experiment on T. rubrum IFO 5805, 0.04 µg/mL (≈ 0.124 µM) in experiment [2] and 0.02 µg/mL (≈ 0.0622 µM) in experiment [3].
Turning to `N#C/C(=C1/SC[C@@H](c2ccccc2Br)S1)n1ccnc1` [compound 8], the “MIC value against Trichophyton” value stood at 0.04 µg/mL (≈ 0.11 µM) in experiment [1] (T. mentagrophytes IFO 5811); 0.16 µg/mL (≈ 0.439 µM) in experiment [1] (T. mentagrophytes IFO 5811, listed as 8'); 0.01 µg/mL (≈ 0.0275 µM) in the experiment on T. rubrum IFO 5805; 0.04 µg/mL (≈ 0.11 µM) with T. rubrum IFO 5805 (listed as 8'); 0.04 µg/mL (≈ 0.11 µM) in experiment [2] (T. mentagrophytes TIMM 2789); 0.02 µg/mL (≈ 0.0549 µM) in experiment [3] (T. rubrum IFO 6204). Moreover, the results for the MIC in experiment [2] and in experiment [3] were 0.02 µg/mL (≈ 0.0549 µM) and 0.01 µg/mL (≈ 0.0275 µM), respectively.
As to `N#C/C(=C1/SC[C@@H](c2ccccc2OC(F)F)S1)n1ccnc1` [compound 9], the “MIC value against Trichophyton” value is 2.56 µg/mL (≈ 7.29 µM) in experiment [1] (T. mentagrophytes IFO 5811), 0.64 µg/mL (≈ 1.82 µM) with T. rubrum IFO 5805, 1.28 µg/mL (≈ 3.64 µM) in experiment [2] (T. mentagrophytes TIMM 2789) and 0.64 µg/mL (≈ 1.82 µM) in experiment [3] (T. rubrum IFO 6204). Further, the MIC in experiment [1] was determined as 1.28 µg/mL (≈ 3.64 µM); in the experiment on T. rubrum IFO 5805, 0.32 µg/mL (≈ 0.911 µM); in experiment [2] it was 0.64 µg/mL (≈ 1.82 µM); in experiment [3] it was 0.32 µg/mL (≈ 0.911 µM).
As to `N#C/C(=C1/SC[C@@H](c2ccccc2C(F)(F)F)S1)n1ccnc1` [compound 10], the “MIC value against Trichophyton” value is 0.64 µg/mL (≈ 1.81 µM) in experiment [1] (T. mentagrophytes IFO 5811), 0.08 µg/mL (≈ 0.226 µM) against T. rubrum IFO 5805, 0.32 µg/mL (≈ 0.906 µM) in experiment [2] (T. mentagrophytes TIMM 2789) and 0.08 µg/mL (≈ 0.226 µM) in experiment [3] (T. rubrum IFO 6204). For the same compound, the MIC was found to be 0.32 µg/mL (≈ 0.906 µM) in experiment [1], 0.04 µg/mL (≈ 0.113 µM) with T. rubrum IFO 5805, 0.16 µg/mL (≈ 0.453 µM) in experiment [2] and 0.04 µg/mL (≈ 0.113 µM) in experiment [3].
On to `N#C/C(=C1/SC[C@@H](c2ccc(Br)cc2Br)S1)n1ccnc1` [compound 11], for which the MIC in experiment [1] turned out to be 0.04 µg/mL (≈ 0.0903 µM); with T. rubrum IFO 5805, 0.02 µg/mL (≈ 0.0451 µM); in experiment [2], 0.02 µg/mL (≈ 0.0451 µM); in experiment [3], 0.01 µg/mL (≈ 0.0226 µM). In addition, the “MIC value against Trichophyton” value in the experiment on T. rubrum IFO 5805 is 0.04 µg/mL (≈ 0.0903 µM); in experiment [3] (T. rubrum IFO 6204), 0.02 µg/mL (≈ 0.0451 µM).
Regarding `N#C/C(=C1/SC[C@@H](c2ccc(F)cc2Cl)S1)n1ccnc1` [compound 12], the “MIC value against Trichophyton” value in experiment [1] (T. mentagrophytes IFO 5811) was found to be 0.04 µg/mL (≈ 0.118 µM); in experiment [1] (T. mentagrophytes IFO 5811, listed as 12'), 0.16 µg/mL (≈ 0.474 µM); against T. rubrum IFO 5805, 0.04 µg/mL (≈ 0.118 µM); in experiment [2] (T. mentagrophytes TIMM 2789) it was 0.04 µg/mL (≈ 0.118 µM); in experiment [3] (T. rubrum IFO 6204) it was 0.04 µg/mL (≈ 0.118 µM). Besides, the MIC (in the experiment with T. rubrum IFO 5805; in experiment [2]; in experiment [3]) was 0.02 µg/mL (≈ 0.0592 µM) in each case.
In the case of `N#C/C(=C1/SC[C@@H](c2ccc(Br)cc2Cl)S1)n1ccnc1` [compound 13, (R)-(E)-[4-(2-chloro-4-bromophenyl) -1,3-dithiolan-2-ylidene]-1-imidazolylacetonitrile], the “MIC value against Trichophyton” value in experiment [1] (T. mentagrophytes IFO 5811) was 0.04 µg/mL (≈ 0.1 µM); against T. rubrum IFO 5805, 0.02 µg/mL (≈ 0.0502 µM); in experiment [2] (T. mentagrophytes TIMM 2789), 0.02 µg/mL (≈ 0.0502 µM); in experiment [3] (T. rubrum IFO 6204), 0.02 µg/mL (≈ 0.0502 µM). Besides, the MIC stood at 0.02 µg/mL (≈ 0.0502 µM) in experiment [1], 0.01 µg/mL (≈ 0.0251 µM) in the experiment with T. rubrum IFO 5805, 0.01 µg/mL (≈ 0.0251 µM) in experiment [2] and 0.01 µg/mL (≈ 0.0251 µM) in experiment [3].
